Test results reported in patent US4007201A, “Novel pyrazole derivatives” (Kyorin Pharmaceutical Co. Ltd., priority 1975, dated 1977).

How the values were obtained:
[1] = Acute toxicity in mice; assay type: in vivo
Source text: (§1) Thus, the toxicity of the present compound was considered to be extremely low.

[2] = tested on: liver glycogen level in rats loaded with glucose; assay: Liver glycogen level in rats loaded with glucose; assay type: in vivo, male Sprague Dawley rats; conditions: oral in 40% glucose solution; 3 hours
Method: (§2) The animals used for the pharmacological studies were male Sprague Dawley rats exept otherwise noted. 1. Hypoglycemic activity in non-diabetic rats (screening test)
The rats were fasted for 16 - 18 hours, and then the compound 4 suspended in 40% glucose solution was orally administered (5 ml/kg of the suspension per body weight). Glycogen content in the liver was determined at 3 hours after the administration.

[3] = tested on: serum FFA level in alloxan diabetic rats; assay: Serum FFA level in alloxan diabetic rats loaded with much quantity of glucose; assay type: in vivo, male Sprague Dawley rats; conditions: compound 4 12.5 and 100 mg/kg, phenformin 100mg/kg; oral with 2g/kg of glucose; 3 hours
Method: (§3) These new compounds of the present invention are very useful as anti-diabetic agents, which is supported from the following pharmacological studies. The animals used for the pharmacological studies were male Sprague Dawley rats exept otherwise noted. 1. Hypoglycemic activity in non-diabetic rats (screening test)
Respective dose of the compound 4 (12.5 and 100 mg/kg) together with 2g/kg of glucose was orally administered to the alloxan diabetic rats.

[4] = tested on: serum FFA level in non-diabetic rats; assay: Serum FFA level in non-diabetic rats, oral administration for 10 days; assay type: in vivo, male Sprague Dawley rats
Method: as §3
The compound suspended in 1% CMC was orally administered once a day for 10 days to healthy rats weighing 140-160g. The rats were fasted for 16-18 hours prior to the last administration. Blood samples were taken at 90 minutes after the last administration, and the blood glucose and serum FFA levels were determined, respectively.

[5] = tested on: blood glucose level in non-diabetic rats; assay: Synergistic effect on the insulin activity in non-diabetic rats; assay type: in vivo, male Sprague Dawley rats; conditions: insulin 0.1 unit/kg s.c.; compound 4 25 mg/kg oral
Method: as §2
The blood glucose levels in the non-diabetic rats were respectively determined after a subcutaneous injection of insulin (0.1 unit/kg), after an oral administration of the compound 4 (25 mg/kg), and after simultaneous administrations of insulin and the compund 4.

[6] = Acute toxicity in rats; assay type: in vivo
Source text: as §1

[7] = tested on: serum cholesterol level in alloxan diabetic rats; assay: Serum cholesterol level in alloxan diabetic rats, 10 consecutive days; assay type: in vivo, male Sprague Dawley rats
Method: as §3
(§4) Alloxan diabetic rats were obtained as follows. Namely, 2.5% fresh solution of alloxan (50mg/kg) was injected into the tail vein of male rats, and the rats were daily injected with insulin (1-4 units/day) from the 7th day after the administration of alloxan. The alloxan diabetic rats which were survived for more than 2 months with daily injection of insulin were used. The alloxan diabetic rats were fasted for 24 hours after the last treatment with insulin, and then the compound of the present invention was orally administered. The blood glucose levels were determined by the micro method of Momose before and 2, 4 and 6 hours after the administration.
(§5) The alloxan diabetic rats which were prepared and then preserved for 6 months with insulin as described in the previous experiment were used.

[8] = tested on: serum FFA level in alloxan diabetic rats; assay: Serum FFA level in alloxan diabetic rats, 10 consecutive days; assay type: in vivo, male Sprague Dawley rats
Method: as §3, §4, §5

[9] = tested on: blood glucose level in adrenalectomized rats; assay: Hypoglycemic effect in adrenalectomized rats; assay type: in vivo, male Sprague Dawley rats; conditions: for Reduction % from control / Blood glucose: 2 hours; for Blood glucose: ± SE
Source text: as §3
The rats were adrenalectomized (both left and right adrenal glands) and were bred for 6-7 days by using 1% saline solution as for drinking water. The adrenalectomized rats were then fasted for 16-18 hours prior to the experiment. Glucose loading (100 mg/150g body weight) was performed by a subcutaneous administration of glucose solution on the back of the rats. Immediately after the glucose loading, the compound 4 suspended in 1% CMC was orally administered. Two hours after the oral administration, blood was obtained from the vena cava candalis of the rats under anesthesia with sodium pentobarbital. Blood glucose level was determined by the method of Momose.

[10] = tested on: serum FFA level in non-diabetic rats; assay: Serum free fatty acids (FFA) level in non-diabetic rats at 90 minutes; assay type: in vivo, male Sprague Dawley rats; conditions: 100 mg/kg oral
Method: as §3
The rats were fasted for 16-18 hours, and those weighing 130-160g were used. The compound 4 suspended in 1% CMC was orally administered to the fasted rats, and at 90 minutes after administration blood was drawn from the […] vena cava under anesthesia with sodium pentobarbital. The blood glucose level was determined by the method of Momose, and the serum FFA level was determined by the method of Itaya and Ui as described in J. Lipid Res., 6, 16 (1965), respectively.

[11] = tested on: elevated blood glucose levels in adrenalectomized rats induced by adrenalin; assay: Adrenalin-induced hyperglycemia in adrenalectomized rats; assay type: in vivo, male Sprague Dawley rats; conditions: 4 mg/kg; adrenalin (50 mg/kg) subcutaneous
[12] = tested on: elevated blood glucose levels in adrenalectomized rats induced by hydrocortisone acetate; assay: Hydrocortisone acetate-induced hyperglycemia in adrenalectomized rats; assay type: in vivo, male Sprague Dawley rats; conditions: 4 mg/kg; hydrocortisone acetate intravenous
[13] = tested on: serum triglyceride level in alloxan diabetic rats; assay: Serum triglyceride level in alloxan diabetic rats, 10 consecutive days; assay type: in vivo, male Sprague Dawley rats
Method: as §2, §4, §5

[14] = tested on: blood glucose level in alloxan diabetic rats; assay: Hypoglycemic effect in alloxan diabetic rats; assay type: in vivo, male Sprague Dawley rats; conditions: for Hypoglycemic effect in alloxan diabetic rats (in words): oral
Method: as §3, §4

[15] = maximum dose technically possible
[16] = 100 mg/kg, 10 consecutive days, control = 100

**Q.** For `Cc1cc(C)n(C(=O)CNS(=O)(=O)c2ccc(Cl)cc2)n1` [Example 4, 1-(N-p-chlorobenzenesulfonyl-glycyl)-3,5-dimethylpyrazole], which “Maximum oral dose without death” value [1, 15] is on record?
**A.** Its value is “about 17 g/kg”.

**Q.** What about the Mortality ([1]; oral, up to about 17g/kg) of the same compound?
**A.** Its Mortality is “no mice or rats suffered death”.

**Q.** And the “Effect on the liver glycogen level” value [2]?
**A.** The value was “significantly reduced the liver glycogen level (p<0.001)”.

**Q.** And the “Effect on serum FFA level (in words)” value [3]?
**A.** Its value is “significantly lowered at 3 hours after the administration (p<0.005)”.

**Q.** And the “Serum FFA levels” value ([4]; 0.8 mg/kg oral once a day)?
**A.** The value was 46.8 ± 5.1 μ Eq/dl.

**Q.** And the “Effect on serum FFA level (in words)” value ([4]; 0.8 mg/kg/day oral)?
**A.** The value was “significantly lowered the serum FFA level even at a low dose (0.8mg/kg/day)”.

**Q.** What about the “Serum FFA levels” value ([4]; 3.1 mg/kg oral once a day) of the same compound?
**A.** The value was 35.9 ± 2.9 μ Eq/dl.

**Q.** What about the “Serum FFA levels” value ([4]; 12.5 mg/kg oral once a day) of the same compound?
**A.** The value was 27.1 ± 1.5 μ Eq/dl.

**Q.** What about the “Serum FFA levels” value ([4]; 50.0 mg/kg oral once a day) of the same compound?
**A.** Its value is 27.9 ± 1.5 μ Eq/dl.

**Q.** And the “Effect of combined use with insulin on blood glucose level” value [5]?
**A.** Its value is “more effective to reduce the blood glucose level than the individual administration”.

**Q.** What about the “Maximum oral dose without death” value [6, 15] of the same compound?
**A.** The value was “about 17 g/kg”.

**Q.** And the Mortality ([6]; oral, up to about 17g/kg)?
**A.** Its Mortality is “no mice or rats suffered death”.

**Q.** And the Cholesterol ([7]; 100 mg/kg, 10 consecutive days)?
**A.** The Cholesterol was 46.1 ± 2.9 mg/dl serum.

**Q.** What about the “Cholesterol, relative to control (100)” value [7, 16] of the same compound?
**A.** The value was 77.6.

**Q.** And the “Effect on serum cholesterol level, 10 days (in words)” value ([7]; oral, 10 days)?
**A.** Its value is “significantly reduced”.

**Q.** What about the FFA ([8]; 100 mg/kg, 10 consecutive days) of the same compound?
**A.** Its FFA is 28.5 ± 7.6 μ Eq/dl serum.

**Q.** And the “FFA, relative to control (100)” value [8, 16]?
**A.** Its value is 44.0.

**Q.** What about the “Effect on serum FFA level, 10 days (in words)” value ([8]; oral, 10 days) of the same compound?
**A.** Its value is “significantly reduced”.

**Q.** What about the “Reduction of the blood glucose level (in words)” value ([9]; 0.125 mg/kg oral) of the same compound?
**A.** Its value is “significantly reduced the blood glucose level even at low dose of 0.125 mg/kg”.

**Q.** What about the “Reduction % from control” value ([9]; 0.125 mg/kg oral) of the same compound?
**A.** The value was 51.9%.

**Q.** What about the Blood glucose ([9]; 0.125 mg/kg oral) of the same compound?
**A.** The Blood glucose was 37.9 ± 5.5 mg %.

**Q.** What about the “Reduction % from control” value ([9]; 0.25 mg/kg oral) of the same compound?
**A.** The value was 70.4%.

**Q.** What about the Blood glucose ([9]; 0.25 mg/kg oral) of the same compound?
**A.** The Blood glucose was 23.3 ± 4.0 mg %.

**Q.** What about the “Reduction % from control” value ([9]; 0.50 mg/kg oral) of the same compound?
**A.** Its value is 77.5%.

**Q.** And the Blood glucose ([9]; 0.50 mg/kg oral)?
**A.** The Blood glucose was 17.8 ± 3.6 mg %.

**Q.** What about the “Reduction % from control” value ([9]; 1.0 mg/kg oral) of the same compound?
**A.** Its value is 83.6%.

**Q.** What about the Blood glucose ([9]; 1.0 mg/kg oral) of the same compound?
**A.** Its Blood glucose is 12.9 ± 1.4 mg %.

**Q.** What about the “Reduction % from control” value ([9]; 2.0 mg/kg oral) of the same compound?
**A.** The value was 81.6%.

**Q.** And the Blood glucose ([9]; 2.0 mg/kg oral)?
**A.** Its Blood glucose is 14.5 ± 3.2 mg %.

**Q.** And the “Reduction % from control” value ([9]; 4.0 mg/kg oral)?
**A.** Its value is 81.6%.

**Q.** What about the Blood glucose ([9]; 4.0 mg/kg oral) of the same compound?
**A.** Its Blood glucose is 14.6 ± 2.9 mg %.

**Q.** What about the “Effect on serum FFA level (in words)” value [10] of the same compound?
**A.** The value was “more effective than tolbutamide in lowering the serum FFA level”.

**Q.** What about the “Serum FFA level” value [10] of the same compound?
**A.** The value was 17.4 ± 5.8 μ Eq/dl.

**Q.** And the “Hypoglycemic activity against hyperglycemia induced by adrenalin” value [11]?
**A.** The value was “particularly effective against the hyperglycemia induced by adrenalin”.

**Q.** And the “Hypoglycemic activity on elevated blood glucose induced by hydrocortisone acetate” value [12]?
**A.** Its value is “exerted its hypoglycemic activity on elevated blood glucose levels in adrenalectomized rats”.

**Q.** What about the Triglyceride ([13]; 100 mg/kg, 10 consecutive days) of the same compound?
**A.** The Triglyceride was 22.1 ± 4.6 mg/dl serum.

**Q.** And the “Triglyceride, relative to control (100)” value [13, 16]?
**A.** Its value is 40.1.

**Q.** What about the “Effect on serum triglyceride level, 10 days (in words)” value ([13]; oral, 10 days) of the same compound?
**A.** Its value is “significantly reduced”.

**Q.** What about the “Blood glucose before administration” value ([14]; 100 mg/kg oral group, before administration (baseline), ± SE) of the same compound?
**A.** The value was 352.1 ± 31.6 mg%.

**Q.** And the “Blood glucose 2 hours” value ([14]; 100 mg/kg oral, 2 hours, ± SE)?
**A.** Its value is 267.6 ± 34.3 mg%.

**Q.** What about the “Blood glucose 4 hours” value ([14]; 100 mg/kg oral, 4 hours, ± SE) of the same compound?
**A.** Its value is 172.4 ± 35.1 mg%.

**Q.** What about the “Blood glucose 6 hours” value ([14]; 100 mg/kg oral, 6 hours, ± SE) of the same compound?
**A.** The value was 97.8 ± 13.4 mg%.

**Q.** And the “Hypoglycemic effect in alloxan diabetic rats (in words)” value [14]?
**A.** Its value is “could be observed, and it lasted so longer than that of phenformin (phenethylbiguanide) as to be potent even at 6 hours after the administration”.

**Q.** With `CCCCNC(=O)NS(=O)(=O)c1ccc(C)cc1` [Tolbutamide, reference compound] as the compound, how does the “Effect on the liver glycogen level” value [2] read?
**A.** The value was “neither tolbutamide or pnenformin exerted such effect”.

**Q.** And the “Serum FFA levels” value ([4]; 50.0 mg/kg oral once a day)?
**A.** Its value is 45.1 ± 2.7 μ Eq/dl.

**Q.** And the “Effect of combined use with insulin on blood glucose level” value [5]?
**A.** Its value is “not more effective than the administration of tolbutamide alone”.

**Q.** What about the “Reduction % from control” value ([9]; 15 mg/kg oral) of the same compound?
**A.** The value was 42.0%.

**Q.** What about the Blood glucose ([9]; 15 mg/kg oral) of the same compound?
**A.** The Blood glucose was 45.7 ± 7.3 mg %.

**Q.** And the “Reduction % from control” value ([9]; 30 mg/kg oral)?
**A.** The value was 79.2%.

**Q.** What about the Blood glucose ([9]; 30 mg/kg oral) of the same compound?
**A.** The Blood glucose was 16.4 ± 2.1 mg %.

**Q.** What about the “Reduction % from control” value ([9]; 60 mg/kg oral) of the same compound?
**A.** The value was 87.9%.

**Q.** And the Blood glucose ([9]; 60 mg/kg oral)?
**A.** The Blood glucose was 9.5 ± 0.6 mg %.

**Q.** And the “Serum FFA level” value [10]?
**A.** The value was 30.8 ± 15.6 μ Eq/dl.

**Q.** And the “Hypoglycemic effect in alloxan diabetic rats (in words)” value [14]?
**A.** The value was “could not exert its hypoglycemic effect in the alloxan diabetic rats”.
